Assay results from patent publication US20160242416A1, “FUNGICIDAL ISOXAZOLINE CARBINOLS” (E I DU PONT DE NEMOURS AND COMPANY, priority 2015, published 2016).

Assays:
[1] = tested on: Erysiphe graminis f sp. tritici; assay: Test G: wheat powdery mildew, preventive spray on wheat seedlings; details: 100 = 100% disease control; for Test G rating (% disease control): 10 ppm, wheat powdery mildew, 0 = no control
Zymoseptoria tritici = assay: Test E: wheat leaf blotch, preventive spray on wheat seedlings; details: 100 = 100% disease control; for Test E rating (% disease control): 10 ppm, wheat leaf blotch, 0 = no control
Botrytis cinerea = assay: Test B: gray mold, preventive spray on tomato seedlings; details: 100 = 100% disease control; for Test B rating (% disease control): 10 ppm, gray mold on tomato, 0 = no control
Description: (§1) General protocol for preparing test solutions for Tests A-G: the test compounds were first dissolved in acetone in an amount equal to 3% of the final volume and then suspended at the desired concentration (in ppm) in acetone and purified water (50/50 mix by volume) containing 250 ppm of the surfactant PEG400 (polyhydric alcohol esters). The resulting test suspensions were then used in Tests A-G. Compounds were sprayed at a concentration of 50 ppm (*) or 10 ppm to the point of run-off on the test plants, the equivalent of a rate of 200 g/ha or 40 g/ha, respectively.
The test solution was sprayed to the point of run-off on tomato seedlings. The following day the seedlings were inoculated with a spore suspension of Botrytis cinerea (the causal agent of gray mold on many crops) and incubated in a saturated atmosphere at 20° C. for 48 h, and moved to a growth chamber at 27° C. for 2 days, after which time visual disease ratings were made.
(§2) Compounds with an asterisks (*) were applied at a concentration of 50 ppm, otherwise test solutions were applied at 10 ppm.

[2] = tested on: Puccinia recondita f sp. tritici; assay: Test F: wheat leaf rust, preventive spray on wheat seedlings; details: 100 = 100% disease control; for Test F rating (% disease control): 10 ppm, wheat leaf rust, 0 = no control
Stagonospora nodorum = assay: Test D: wheat glume blotch, preventive spray on wheat seedlings; details: 100 = 100% disease control; for Test D rating (% disease control): 10 ppm, wheat glume blotch, 0 = no control
Description: as §1
The test solution was sprayed to the point of run-off on wheat seedlings. The following day the seedlings were inoculated with a spore suspension of Stagonospora nodorum (also known as Septoria nodorum; the causal agent of wheat glume blotch) and incubated in a saturated atmosphere at 20° C. for 48 h, and then moved to a growth chamber at 20° C. for 6 days, after which time visual disease ratings were made.
as §2

[3] = 10 ppm test solution, 0 = no control relative to controls

SMILES	Test G rating (% disease control) [1] [%]	Test E rating (% disease control) (Zymoseptoria tritici) [%]	Test B rating (% disease control) (Botrytis cinerea) [%]	Test F rating (% disease control) [2] [%]	Test D rating (% disease control) (Stagonospora nodorum) [%]	Test G disease control rating [1, 3] [%]	Test E disease control rating (Zymoseptoria tritici; [3]) [%]	Test B disease control rating (Botrytis cinerea; [3]) [%]	Test F disease control rating [2, 3] [%]	Test D disease control rating (Stagonospora nodorum; [3]) [%]
OC(Cn1cncn1)(C1=NOC(c2ccc(Oc3ccccc3)cc2)C1)c1ccc(Cl)cc1 (single isomer, unassigned) [Compound 142]	99	91	0	100	86					
CC(C)(C)C(O)(Cn1cncn1)C1=NOC(COc2ccc(Br)cc2)C1 (single isomer, unassigned) [Compound 182]	100	96	99	100	99					
OC(Cn1cncn1)(C1=NOC(c2ccc(Cl)cc2)C1)C1CCCCC1 (single isomer, unassigned) [Compound 197]	98	0	11	100	92					
CC(C)(C)C(O)(Cn1cncn1)C1=NOC(c2cnccn2)C1 (single isomer, unassigned) [Compound 168]	35	3	11	0	0					
CC(C)(C)C(O)(Cn1cncn1)C1=NOC(Cn2cc(Br)cn2)C1 (single isomer, unassigned) [Compound 42]	0	0	0	9	42					
OC(Cn1cncn1)(C1=NOC(Cc2ccccc2)C1)c1ccc(Cl)cc1 (single isomer, unassigned) [Compound 137]	99	26	0	99	77					
OC(Cn1cncn1)(C1=NOC(c2ccc(-n3ccc(C(F)(F)F)n3)cc2)C1)c1ccc(Cl)cc1 (single isomer, unassigned) [Compound 149]	76	38	0	36	0					
OC(Cn1cncn1)(C1=NOC(c2ccc(F)cc2)C1)c1ccc(Cl)cc1 (single isomer, unassigned) [Compound 158]	100	3	0	100	96					
OC(Cn1cncn1)(C1=NOC(COCc2ccccc2)C1)c1ccc(Cl)cc1 (single isomer, unassigned) [Compound 57]	97	0	0	97	0					
CC(C)(C)C(O)(Cn1cncn1)C1=NOC(CCc2ccc(C(F)(F)F)cc2)C1 (single isomer, unassigned) [Compound 13]	100	98	0	100	100					
CC(C)(C)C(O)(Cn1cncn1)C1=NOC(COc2ccc(Cl)cn2)C1 (single isomer, unassigned) [Compound 95]	100	0	100	100	100					
CC1(C(O)(Cn2cncn2)C2=NOC(c3ccc(Cl)cc3)C2)CC1 (single isomer, unassigned) [Compound 126]	99	89	97	100	100					
OC(Cn1cncn1)(C1=NOC(c2ccc(Br)cc2)C1)c1ccc(Cl)cc1 (single isomer, unassigned) [Compound 179]	91	0	0	100	0					
OC(Cn1cncn1)(C1=NOC(c2ccc(C(F)(F)F)cc2)C1)c1ccc(Cl)cc1 (single isomer, unassigned) [Compound 146]	99	99	0	100	100					
OC(Cn1cncn1)(C1=NOC(COc2ccc3c(c2)OCO3)C1)c1ccc(Cl)cc1 (single isomer, unassigned) [Compound 43]	98	0	31	100	38					
OC(Cn1cncn1)(C1=NOC(Cn2ccc(C(F)(F)F)n2)C1)c1ccc(Cl)cc1 (single isomer, unassigned) [Compound 195]	100	0	0	99	0					
CC(C)(C)C(O)(Cn1cncn1)C1=NOC(COc2ccc(Cl)cn2)C1 (single isomer, unassigned) [Compound 96]	99	5	85	100	100					
CC(C)(C)C(O)(Cn1cncn1)C1=NOC(CSc2ccccc2)C1 (single isomer, unassigned) [Compound 73]	56	0	25	9	62					
OC(Cn1cncn1)(C1=NOC(Cc2ccc(F)cc2)C1)c1ccc(Cl)cc1 (single isomer, unassigned) [Compound 198]	100	0	0	100	81					
OC(Cn1cncn1)(C1=NOC(Cc2ccc(Br)cc2)C1)c1ccc(Cl)cc1 (single isomer, unassigned) [Compound 55]	99	2	0	99	73					
OC(Cn1cncn1)(C1=NOC(CSc2ccccc2)C1)c1ccc(Cl)cc1 (single isomer, unassigned) [Compound 51]	81	1	16	0	89					
CC(C)(C)C(O)(Cn1cncn1)C1=NOC(COc2cccc(Cl)c2)C1 (single isomer, unassigned) [Compound 231]						99	6	80	100	100
